Results reported in paper PMC6930570, “2-Arylidene-1-indandiones as Pleiotropic Agents with Antioxidant and Inhibitory Enzymes Activities” (Molecules, 2019).

Key:
[1] = Experimental lipophilicity as RM values by RPTLC; format: physicochemical; set-up: key: RM = log[(1/Rf) − 1], from Rf values by RPTLC; conditions: methanol/water 70/30, 24 °C, average of at least 5 measurements
From the text: Lipophilicity is a physicochemical parameter indicating the relationship of a drug to its biological activity. It affects ligand-target binding interactions, solubility, ADME (absorption, distribution, bioavailability, metabolism, and elimination) and toxicological effects. RPTLC (reverse phase thin layer chromatography) method was used for the experimental determination, as RM values. The RPTLC method is considered a secure, rapid and appropriate method for expressing the lipophilic character of a compound (Table 1).
Reversed phase TLC (RPTLC) was performed on silica gel plates impregnated with 5% (v/v) liquid paraffin in light petroleum ether. The mobile phase was a methanol/water mixture (70/30, v/v). The plates were developed in closed chromatography tanks saturated with the mobile phase at 24 °C. Spots were detected under UV light. Five individual measurements of Rf values were recorded and used for the determination of RM using the equation RM = log [(1/Rf) − 1] [59, 60, 62] (Table 2).

[2] = Inhibition of linoleic acid peroxidation induced by AAPH; format: biochemical; conditions: no = no action under the experimental conditions
From the text: In the water soluble 2,2′-azobis(2-amidinopropane) hydrochloride (AAPH) the free radicals are produced in vitro through spontaneous thermal decomposition resembling to lipid peroxidation in cells due to the action of the peroxyl radicals. […] Compounds 11, 5, 4 and 3 presented no activity under the experimental conditions. From the experimental results it can be concluded that the 3,5-di-tert-butyl-group offers protection against lipid peroxidation. Electronic parameters expressed by the highest occupied molecular orbital (HOMO) describes better the biological activity (Equation (2)). log AAPH % = −22.042(± 8.731) HOMO − 4.853 (2.622)(2) n = 8, r = 0.930, r^2 = 0.864, q^2 = 0.567, s = 0.146, F1,8 = 5.783, α = 0.1
The oxidation reaction was started with 2,2′-Azobis(2-amidinopropane) dihydrochloride (AAPH) as a free radical initiator. Linoleic acid sodium salt was oxidized at 234 nm to a conjugated diene hydroperoxide resulting an increased absorption. Trolox was used as reference compound (93%) (Table 3).

[3] = tested on: trypsin; assay: In vitro inhibition of trypsin induced proteolysis; format: biochemical; conditions: bovine albumin substrate, no = no action under the experimental conditions
Protocol: Serine proteases are implicated in the pathophysiology of inflammatory diseases and trypsin is well known years ago [66]. Trypsin has been associated with host defense reactions and tissue damage. In this study, the novel derivatives have been evaluated towards trypsin and thrombin. Compounds 8 and 9 present high activity.
The Kunitz method was used after modification using bovine albumin was used as substrate for trypsin. In this assay, first 200 μL of 0.075 mg/mL trypsin and 780 μL of phosphate buffer pH 7.6 including the tested compounds (20 μL in DMSO, final concentration 100 μM) were pre-incubated at 37 °C for 20 min and then added 1 mL of albumin (stock solution 6 g/100 mL in phosphate buffer 0.1 M, pH 7.6) and incubated at 37 °C for 30 min. Secondly 1mLof 5% trichloroacetic acid was added to the incubated solution to stop the enzyme’s reaction and allowed to set at room temperature for 1 h. Then the solution was filtered, and the absorption of the filtrate was measured at 280 nm using salicylic acid as a reference compound [61] (Table 3).

[4] = tested on: carrageenin-induced rat paw edema; assay: Inhibition of the carrageenin-induced rat paw edema (CPE); format: in vivo, Fisher 344 rats; conditions: 0.01 mmol/kg body weight, intraperitoneally, 3.5 h after carrageenin; for inhibition in vivo at 10 µmol/kg: Rattus norvegicus, ip, read-out: CPE % (reduction of the rat paw edema)
From the text: Carrageenin-induced rat paw edema (CPE) model was used to study the in vivo anti-inflammatory activity of the tested derivatives and the results are presented in Table 3. […] Compounds 2, 7, 8, 10, and 12 presented small differences in their biological activity. The presence of the thienyl group as well as of the furyl leads to higher anti-inflammatory activity (1 and 3) while substitution with a phenyl group leads to two-fold decrease of the activity (28%).
Edema was induced in the right hind paw of Fisher 344 rats (150–200 g) by the intradermal injection of 0.1 mL 2% carrageenin in water. Both sexes were used while females pregnant were excluded. Each group was composed of 6–15 animals. The animals, which have been bred in our laboratory, were housed under standard conditions and received a diet of commercial food pellets and water ad libitum during the maintenance but they were entirely fasted during the experiment period. Our studies were in accordance with recognised guidelines on animal experimentation. (guidelines for the care and use of laboratory animals published by the Greek Government 160/1991, based on EU regulations 86/609). Rats were kept in the Centre of the School of Veterinary Medicine (EL54 BIO42), Aristotle University of Thessaloniki, which is registered by the official state veterinary authorities (presidential degree 56/2013, in harmonization with the European Directive 2010/63/EEC). The experimental protocols were approved by the Animal Ethics Committee of the Prefecture of Central Macedonia (no. 270079/2500). The tested compounds 0.01 mmol/kg body weight were suspended in water, with a few drops of Tween 80 and ground in a mortar before use and were given intraperitoneally simultaneously with the carrageenin injection. The rats were euthanized 3.5 h after carrageenin injection. The difference between the weight of the injected and uninjected paws was calculated for each animal. The change in paw weight was compared with that in control animals (treated with water) and expressed as a percent inhibition of the edema CPE % values […] [58, 59]. Indomethacin in 0.01 mmol/kg (47%). Values CPE % are the mean from two different experiments with a standard error of the mean less than 10% (Table 3).

SMILES | RM (±SD) [1] | melting point | AAPH% 100 µM (anti-lipid peroxidation) [2] | Iptr% 100 µM (inhibition of trypsin induced proteolysis) [3] | inhibition in vivo at 10 µmol/kg [4] | CPE % (reduction of the rat paw edema) [4]
CN(C)c1ccc(/C=C\C=C2C(=O)c3ccccc3C2=O)cc1 [Compound 6, (Z)-2-(3-(4-(dimethylamino)phenyl)allylidene)-1H-indene-1,3(2H)-dione] | −0.527 ± 0 | 85 to 87 °C | 9% | 29% |  | 
O=C1C(=Cc2cccc(Oc3ccccc3)c2)C(=O)c2ccccc21 [Compound 7, (Z)-2-(3-phenoxybenzylidene)-1H-indene-1,3(2H)-dione] | −0.196 ± 0.02 | 143 to 145 °C | 82% | 33% | 41% | 41%
O=C1C(=Cc2ccc(OCc3ccc(Br)cc3)cc2)C(=O)c2ccccc21 [Compound 8, (Z)-2-(4-((4-bromobenzyl)oxy)benzylidene)-1H-indene-1,3(2H)-dione] |  | 222 to 224 °C | 79% | 85% | 46% | 46%
CC(C)(C)c1cc(C=C2C(=O)c3ccccc3C2=O)c(O)c(C(C)(C)C)c1 [Compound 9, (Z)-2-(3,5-di-tert-butyl-2-hydroxybenzylidene)-1H-indene-1,3(2H)-dione] | −1.038 ± 0 | 52 to 54 °C | 96% | 98% |  | 
CC(C)(C)c1cc(C=C2C(=O)c3ccccc3C2=O)cc(C(C)(C)C)c1O [Compound 10, (Z)-2-(3,5-di-tert-butyl-4-hydroxybenzylidene)-1H-indene-1,3(2H)-dione] | −0.103 ± 0 | 98 to 100 °C | 85% | do not present any activity and no | 42% | 

Second part, led by results:

RM (±SD) [1] | melting point | SMILES | AAPH% 100 µM (anti-lipid peroxidation) [2] | Iptr% 100 µM (inhibition of trypsin induced proteolysis) [3] | inhibition in vivo at 10 µmol/kg [4] | CPE % (reduction of the rat paw edema) [4]
0.031 ± 0 | 171 to 172 °C | Cc1ccsc1C=C1C(=O)c2ccccc2C1=O [Compound 2, (Z)-2-((3-methylthiophen-2-yl)methylene)-1H-indene-1,3(2H)-dione] | 92% | do not present any activity and no | 45% | 
0.014 ± 0 |  | Cc1ccc(C=C2C(=O)c3ccccc3C2=O)o1 [Compound 3, (Z)-2-((5-methylfuran-2-yl)methylene)-1H-indene-1,3(2H)-dione] | no activity and no | 17% | 50% | 
−0.615 ± 0.02 |  | O=C1C(=Cc2ccccc2)C(=O)c2ccccc21 [Compound 4, 2-benzylidene-1H-indene-1,3(2H)-dione] | no activity and no | 4% | 28% | 
−0.134 ± 0.02 | 283 to 285 °C | O=C1C(=Cc2c[nH]c3ccccc23)C(=O)c2ccccc21 [Compound 12, (Z)-2-((1H-indol-3-yl)methylene)-1H-indene-1,3(2H)-dione] | 31% | do not present any activity and no | 42% | 
